Among the test systems are SK-OV-3 ovarian; MALME-3M melanoma; MOLT-4 leukemia; MDA-MB-231 breast; CCRF-CEM leukemia; HCT-116 colon; T-47D breast; OVCAR-3 ovarian; HL-60(TB) leukemia; M14 melanoma; UO-31 renal; HCC-2998 colon.
Common to all, as to experiment: NCI tumour cell line growth inhibition, 48 h

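Growth conditions: 96-well plates. Treatment: test compound, 48 hours, 5 concentrations. Analysis: linear interpolation between bracketing concentrations; unreached endpoints set to highest concentration. Definition used: TGI = concentration required for complete inhibition of growth.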

As for `CC1(C)OC[C@@]2([C@@H]3CC[C@@H](C3)C2(C)C)N1O`, the TGI with SK-OV-3 ovarian, with MALME-3M melanoma, in the test with MOLT-4 leukemia, with MDA-MB-231 breast, with CCRF-CEM leukemia and with HCT-116 colon was above 100 µM in each case. The TGI with T-47D breast, in the test on OVCAR-3 ovarian, with HL-60(TB) leukemia and with M14 melanoma was above 100 µM throughout.

With `CC1(C)OC2CN(C(=O)OCc3ccccc3)C(CO)C2O1` (stereo not given), the TGI with UO-31 renal, with HCC-2998 colon, with SK-OV-3 ovarian, with MALME-3M melanoma, in the test on MOLT-4 leukemia and in the test with MDA-MB-231 breast was above 100 µM throughout. The TGI in the test with HCT-116 colon, in the test with T-47D breast, in the test on OVCAR-3 ovarian, in the test on HL-60(TB) leukemia and with M14 melanoma was above 100 µM in each case.

In the case of `CCOC(=O)C1(Cc2ccccc2)CCN(C(=O)c2ccccc2)C2C1C2(Cl)Cl` (stereo not given), the TGI in the test with UO-31 renal was 58.9 µM; in the test with HCC-2998 colon it was 30.5 µM; in the test on SK-OV-3 ovarian it was above 100 µM; in the test on MALME-3M melanoma it was 51.5 µM; with MOLT-4 leukemia it was 52.9 µM; in the test on MDA-MB-231 breast, 43.9 µM. The TGI is 54.1 µM with CCRF-CEM leukemia; 30 µM with HCT-116 colon; 62.4 µM with T-47D breast; 47.1 µM in the test on OVCAR-3 ovarian; 32.6 µM in the test with HL-60(TB) leukemia; 34.6 µM in the test with M14 melanoma.

Take `COc1ccc(C2c3cc4c(cc3OC(N3CCOCC3)C2C)OCO4)c(OC)c1` (stereo not given): the TGI in the test on UO-31 renal was 58.7 µM; with HCC-2998 colon, 14.5 µM; with SK-OV-3 ovarian, 52.6 µM; in the test with MALME-3M melanoma, 36.6 µM; with MOLT-4 leukemia, 31.9 µM; in the test with MDA-MB-231 breast, 32.5 µM. Besides, the TGI with CCRF-CEM leukemia is 38.1 µM; with HCT-116 colon, 15.8 µM; in the test with T-47D breast it was above 54.8 µM; in the test on OVCAR-3 ovarian, 13.9 µM; in the test with HL-60(TB) leukemia, above 31.4 µM; in the test on M14 melanoma, 21.2 µM.

With `c1ccc2c(Cc3c[nH]c4ccccc34)c[nH]c2c1`, the TGI with UO-31 renal amounted to 27.7 µM; in the test with SK-OV-3 ovarian it was 51 µM; with MALME-3M melanoma, 51 µM; in the test with MOLT-4 leukemia, 61.1 µM; in the test with MDA-MB-231 breast, 31.5 µM; with CCRF-CEM leukemia, 37.2 µM. The TGI in the test with HCT-116 colon was found to be 31.2 µM; in the test with T-47D breast, 63.7 µM; in the test on OVCAR-3 ovarian it was 30.8 µM; with HL-60(TB) leukemia, 33.4 µM; in the test on M14 melanoma, 34.1 µM.

Regarding `CCO[C@H]1C[C@@H](c2ccccc2)[C@]2(C)C[C@H](C(=O)OC)ON2O1`, the TGI in the test on UO-31 renal, with MALME-3M melanoma, in the test on MOLT-4 leukemia, in the test on MDA-MB-231 breast, in the test on CCRF-CEM leukemia and with HCT-116 colon was above 100 µM in each case. For the same compound, the TGI in the test with T-47D breast, in the test with OVCAR-3 ovarian, in the test on HL-60(TB) leukemia and with M14 melanoma was above 100 µM in each case.

As to `CC1(C)SC2C(NC(=O)Cc3ccccc3)C(=O)N2C1C(=O)O` (stereo not given), the TGI in the test on UO-31 renal, in the test on SK-OV-3 ovarian, in the test with MALME-3M melanoma, in the test on MOLT-4 leukemia, with MDA-MB-231 breast and with HCT-116 colon was above 100 µM each time. Moreover, the TGI in the test on T-47D breast, in the test with OVCAR-3 ovarian, in the test with HL-60(TB) leukemia and in the test on M14 melanoma was above 100 µM each time.

`O=C(CN=C(CN(c1ccccc1)c1ccccc1)Oc1c([N+](=O)[O-])cc([N+](=O)[O-])cc1[N+](=O)[O-])N1CCNCC1`: the TGI with HCC-2998 colon, with SK-OV-3 ovarian, in the test on MALME-3M melanoma, in the test on MOLT-4 leukemia, in the test on MDA-MB-231 breast and with CCRF-CEM leukemia was above 100 µM throughout. The TGI in the test with HCT-116 colon, with T-47D breast, in the test with OVCAR-3 ovarian, in the test on HL-60(TB) leukemia and in the test with M14 melanoma was above 100 µM each time.

For the compound `Cc1ccc(N2C(=O)CC(=O)N(NC(=O)C(C)Oc3ccccc3C)C2=S)cc1` (stereo not given), the TGI with UO-31 renal, in the test on HCC-2998 colon, with SK-OV-3 ovarian, in the test with MALME-3M melanoma, in the test with MOLT-4 leukemia and with MDA-MB-231 breast was above 100 µM in each case. The TGI with CCRF-CEM leukemia was 5.59 µM; in the test with HCT-116 colon, above 100 µM; in the test on T-47D breast it was above 100 µM; in the test with OVCAR-3 ovarian, above 100 µM; in the test with HL-60(TB) leukemia, above 100 µM; in the test on M14 melanoma it was above 100 µM.

`CCOC(=O)CC[C@@H](NC(=O)c1ccc(NCc2ccc3nc(OC)c(OC)nc3c2)cc1)C(=O)OCC`: the TGI with UO-31 renal is above 65.4 µM; in the test on HCC-2998 colon, above 100 µM; with SK-OV-3 ovarian, above 100 µM; with MALME-3M melanoma, 39 µM; in the test on MOLT-4 leukemia, above 31.6 µM; in the test with MDA-MB-231 breast, above 100 µM. The TGI in the test with CCRF-CEM leukemia was above 100 µM; with HCT-116 colon it was above 100 µM; in the test on T-47D breast it was 58.3 µM; in the test with OVCAR-3 ovarian it was 38.3 µM; in the test with HL-60(TB) leukemia, above 100 µM; in the test on M14 melanoma, 32 µM.

Regarding `OCC1CCCCN1Cc1nc2ccc(Cl)cc2[nH]1` (stereo not given), the TGI with UO-31 renal, in the test with HCC-2998 colon, in the test with SK-OV-3 ovarian, in the test on MALME-3M melanoma, in the test with MOLT-4 leukemia and in the test with MDA-MB-231 breast was above 100 µM in each case. In addition, the TGI in the test with CCRF-CEM leukemia, in the test with HCT-116 colon, with T-47D breast, with OVCAR-3 ovarian, in the test with HL-60(TB) leukemia and in the test on M14 melanoma was above 100 µM each time.

As for `CNC(=O)CNC(=O)CCC(=O)N(C)C`, the TGI in the test on UO-31 renal, with HCC-2998 colon, with SK-OV-3 ovarian, in the test with MALME-3M melanoma, in the test on MOLT-4 leukemia and in the test on MDA-MB-231 breast was above 100 µM in each case. The TGI in the test with CCRF-CEM leukemia, with HCT-116 colon, in the test with T-47D breast, with OVCAR-3 ovarian, with HL-60(TB) leukemia and with M14 melanoma was above 100 µM each time.

The values are drawn from PubChem BioAssay (NCI).
